Measured values as given in the supplement of paper PMC11061612.

Assays:
C32 (Melanoma) [1] = test: Bliss excess, mean over the matrix (fraction); higher = more synergy
Method in brief: (§1)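 After 24 hours at 37°C and 5% CO2 in 1536-well plates, cells in DMEM/F12 or RPMI plus 10% FBS received two-drug dose matrices for 72 hours. Viability came from CellTiter-Glo 2.0 luminescence and was scaled as inhibition, anchored at 0 by vehicle wells and at 1 by blank wells. Combination Emax is taken as the second-highest inhibition in the matrix, and Bliss excess as the observed combination effect less EA + EB − EA·EB, with EA and EB the single-agent effects.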

C32 (Melanoma) [2] = test: combination Emax (second highest fraction inhibited in the dose matrix, 72 h); higher = more inhibition; extreme values may be limits of the assay
Method in brief: as §1

MG-63 (Osteosarcoma) = test: as above
Method in brief: as §1

[3] = tested on: NCI-H1048 (Small Cell Lung Carcinoma); test: as above
Method in brief: as §1

[4] = tested on: Daudi (Burkitt's Lymphoma); test: as above
Method in brief: as §1

[5] = tested on: MDA-MB-175-VII (Breast Carcinoma); test: as above
Method in brief: as §1

[6] = tested on: SNU-1 (Gastric Carcinoma); test: as above
Method in brief: as §1

[7] = tested on: OVKATE (Ovarian Carcinoma); test: as above
Method in brief: as §1

[8] = tested on: NCI-H1648 (Lung Adenocarcinoma); test: as above
Method in brief: as §1

[9] = tested on: NCI-H1435 (Non-Small Cell Lung Carcinoma); test: as above
Method in brief: as §1

HT-144 (Melanoma) = test: as above
Method in brief: as §1

[10] = tested on: NCI-H2170 (Squamous Cell Lung Carcinoma); test: as above
Method in brief: as §1

[11] = tested on: SUP-HD1 (Hodgkin's Lymphoma); test: as above
Method in brief: as §1

[12] = tested on: RS4-11 (B-Lymphoblastic Leukemia); test: as above
Method in brief: as §1

[13] = tested on: SBC-5 (Small Cell Lung Carcinoma); test: as above
Method in brief: as §1

[14] = tested on: SCC90 (Head and Neck Carcinoma); test: as above
Method in brief: as §1

[15] = tested on: HT-1197 (Bladder Carcinoma); test: as above
Method in brief: as §1

[16] = tested on: BT-474 (Breast Carcinoma); test: as above
Method in brief: as §1

[17] = tested on: HT-3 (Cervical Carcinoma); test: as above
Method in brief: as §1

A375 (Melanoma) = test: as above
Method in brief: as §1
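Wherever Bliss excess, mean over the matrix is given: after 72 h of two-drug dosing.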

| SMILES | Bliss excess (C32 (Melanoma) [1]) | combination Emax (C32 (Melanoma) [2]) | combination Emax (MG-63 (Osteosarcoma)) | combination Emax [3] | combination Emax [4] | combination Emax [5] | combination Emax [6] | combination Emax [7] | combination Emax [8] | combination Emax [9] | combination Emax (HT-144 (Melanoma)) | combination Emax [10] | combination Emax [11] | combination Emax [12] | combination Emax [13] | combination Emax [14] | combination Emax [15] | combination Emax [16] | combination Emax [17] | combination Emax (A375 (Melanoma)) |
| --- | --- | --- | --- | --- | --- | --- | --- | --- | --- | --- | --- | --- | --- | --- | --- | --- | --- | --- | --- | --- |
| CN(CCO)CC[C@H](CSc1ccccc1)Nc1ccc(S(=O)(=O)NC(=O)c2ccc(N3CCC([C@@H](O)c4ccccc4-c4ccc(Cl)cc4)CC3)cc2)cc1S(=O)(=O)C(F)(F)F [AZD4320] + Cc1cc2ncnn2cc1Nc1ncc2c(n1)n(C1CCOCC1)c(=O)n2C [AZD7648] (first compound max 1 µM, 7x7, partner max 10 µM) | -0.0275 | 0.211 | 0.179 | 0.884 | 0.22 | 0.274 | 0.463 | 0.303 | 0.694 | 0.752 | 0.193 | 0.674 | 0.939 | 1 | 0.166 | 0.448 | 0.261 | 0.154 | 0.0567 | 0.134 |
| CN(CCO)CC[C@H](CSc1ccccc1)Nc1ccc(S(=O)(=O)NC(=O)c2ccc(N3CCC([C@@H](O)c4ccccc4-c4ccc(Cl)cc4)CC3)cc2)cc1S(=O)(=O)C(F)(F)F [AZD4320] + Nc1ccn([C@@H]2O[C@H](CO)[C@@H](O)C2(F)F)c(=O)n1 [Gemcitabine] (first compound max 1 µM, 7x7, partner max 0.3 µM) | 0.0027 | 0.805 | 0.973 | – | – | 0.824 | – | 0.246 | 0.49 | 0.823 | – | – | – | – | – | – | – | – | – | 0.996 |
| Cc1cc2ncnn2cc1Nc1ncc2c(n1)n(C1CCOCC1)c(=O)n2C [AZD7648] + C=CCn1c(=O)c2cnc(Nc3ccc(N4CCN(C)CC4)cc3)nc2n1-c1cccc(C(C)(C)O)n1 [AZD1775] (first compound max 10 µM, partner max 1 µM) | 0.0106 | 0.434 | 0.466 | 0.747 | 0.809 | 0.38 | 0.628 | 0.422 | 0.774 | 0.355 | 0.611 | 0.741 | 0.785 | 0.952 | 0.359 | 0.905 | 0.521 | 0.324 | 0.401 | 0.592 |
| Cc1cc2ncnn2cc1Nc1ncc2c(n1)n(C1CCOCC1)c(=O)n2C [AZD7648] + COc1cc([C@@H]2c3cc4c(cc3[C@@H](O[C@@H]3O[C@@H]5CO[C@@H](C)O[C@H]5[C@H](O)[C@H]3O)[C@H]3COC(=O)[C@H]23)OCO4)cc(OC)c1O [Etoposide] (first compound max 10 µM, 7x7, partner max 10 µM) | 0.0402 | 0.526 | 0.874 | – | – | 0.399 | – | 0.266 | 0.424 | 0.286 | – | – | – | – | – | – | – | – | – | 0.901 |
| N#Cc1cnc(Nc2cc(NC[C@H]3CNCCO3)c(C(F)(F)F)cn2)cn1 [SRA737] + C=CCn1c(=O)c2cnc(Nc3ccc(N4CCN(C)CC4)cc3)nc2n1-c1cccc(C(C)(C)O)n1 [AZD1775] (first compound max 10 µM, partner max 1 µM) | 0.0397 | 0.581 | 0.867 | – | – | 0.276 | – | 0.222 | 0.621 | 0.267 | – | – | – | – | – | – | – | – | – | 0.615 |
| N#Cc1cnc(Nc2cc(NC[C@H]3CNCCO3)c(C(F)(F)F)cn2)cn1 [SRA737] + CCc1c2c(nc3ccc(O)cc13)-c1cc3c(c(=O)n1C2)COC(=O)[C@]3(O)CC [SN-38] (first compound max 10 µM, 7x7, partner max 0.3 µM) | -0.0762 | 0.626 | 0.953 | – | – | 0.63 | – | 0.138 | 0.849 | 0.46 | – | – | – | – | – | – | – | – | – | 0.923 |
| N#Cc1cnc(Nc2cc(NC[C@H]3CNCCO3)c(C(F)(F)F)cn2)cn1 [SRA737] + Nc1ccn([C@@H]2O[C@H](CO)[C@@H](O)C2(F)F)c(=O)n1 [Gemcitabine] (first compound max 10 µM, 7x7, partner max 0.3 µM) | -0.0986 | 0.724 | 0.988 | – | – | 0.519 | – | 0.27 | 0.666 | 0.411 | – | – | – | – | – | – | – | – | – | 0.972 |
| N#Cc1cnc(Nc2cc(NC[C@H]3CNCCO3)c(C(F)(F)F)cn2)cn1 [SRA737] + O=c1[nH]cc(F)c(=O)[nH]1 [5-Fluorouracil] (first compound max 10 µM, 7x7, partner max 20 µM) | -0.0343 | 0.15 | 0.492 | – | – | 0.21 | – | 0.147 | 0.208 | 0.164 | – | – | – | – | – | – | – | – | – | 0.226 |
| C[C@@H](c1ccc2nccn2c1)n1nnc2ncc(-c3cnn(C)c3)nc21 [Savolitinib] + CN(CC[C@H](CSC1=CC=CC=C1)NC2=C(C=C(C=C2)S(=O)(=O)NC(=O)C3=CC=C(C=C3)N4CCC(CC4)[C@H](C5=CC=CC=C5C6=CC=C(C=C6)Cl)O)S(=O)(=O)C(F)(F)F)CCO [AZD4320] (first compound max 1 µM, 7x7, partner max 1 µM) | -0.0103 | 0.377 | – | 0.593 | 0.188 | – | 0.417 | – | – | – | 0.189 | 0.657 | 0.941 | 1 | 0.326 | 0.502 | 0.255 | 0.262 | 0.15 | 0.202 |
